Each block holds one molecule with its values, some of them ahead of it.
What was measured:
[1] = target: T1, Cytoplasmic tyrosine-protein kinase BMX (Homo sapiens) (UniProt P51813); details: at 10 µM
T1 sequence (whole entry): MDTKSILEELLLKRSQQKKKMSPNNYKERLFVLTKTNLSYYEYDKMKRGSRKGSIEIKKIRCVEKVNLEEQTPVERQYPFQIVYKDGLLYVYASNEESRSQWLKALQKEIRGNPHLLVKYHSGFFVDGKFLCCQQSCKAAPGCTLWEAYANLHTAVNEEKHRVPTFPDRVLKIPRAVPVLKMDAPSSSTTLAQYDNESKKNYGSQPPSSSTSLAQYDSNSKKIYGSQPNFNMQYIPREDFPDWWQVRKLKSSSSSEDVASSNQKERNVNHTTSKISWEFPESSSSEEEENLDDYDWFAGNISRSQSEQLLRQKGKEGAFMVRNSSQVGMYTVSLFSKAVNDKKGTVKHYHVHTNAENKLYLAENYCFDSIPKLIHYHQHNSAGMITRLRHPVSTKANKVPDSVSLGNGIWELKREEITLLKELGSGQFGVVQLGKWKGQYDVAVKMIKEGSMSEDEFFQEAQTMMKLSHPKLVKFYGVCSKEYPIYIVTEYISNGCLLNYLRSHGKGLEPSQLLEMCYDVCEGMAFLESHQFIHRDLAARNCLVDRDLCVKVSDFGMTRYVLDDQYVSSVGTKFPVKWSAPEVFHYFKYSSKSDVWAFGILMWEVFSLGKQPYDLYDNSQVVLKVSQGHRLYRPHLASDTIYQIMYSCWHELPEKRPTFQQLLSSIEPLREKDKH

[2] = target: T2, Serine/threonine-protein kinase TAO2 (Homo sapiens) (UniProt Q9UL54); test: Selectivity interaction (KinomeScan (DiscoverX)) EUB0001619a TAOK2; details: at 1 µM
T2 sequence (whole entry): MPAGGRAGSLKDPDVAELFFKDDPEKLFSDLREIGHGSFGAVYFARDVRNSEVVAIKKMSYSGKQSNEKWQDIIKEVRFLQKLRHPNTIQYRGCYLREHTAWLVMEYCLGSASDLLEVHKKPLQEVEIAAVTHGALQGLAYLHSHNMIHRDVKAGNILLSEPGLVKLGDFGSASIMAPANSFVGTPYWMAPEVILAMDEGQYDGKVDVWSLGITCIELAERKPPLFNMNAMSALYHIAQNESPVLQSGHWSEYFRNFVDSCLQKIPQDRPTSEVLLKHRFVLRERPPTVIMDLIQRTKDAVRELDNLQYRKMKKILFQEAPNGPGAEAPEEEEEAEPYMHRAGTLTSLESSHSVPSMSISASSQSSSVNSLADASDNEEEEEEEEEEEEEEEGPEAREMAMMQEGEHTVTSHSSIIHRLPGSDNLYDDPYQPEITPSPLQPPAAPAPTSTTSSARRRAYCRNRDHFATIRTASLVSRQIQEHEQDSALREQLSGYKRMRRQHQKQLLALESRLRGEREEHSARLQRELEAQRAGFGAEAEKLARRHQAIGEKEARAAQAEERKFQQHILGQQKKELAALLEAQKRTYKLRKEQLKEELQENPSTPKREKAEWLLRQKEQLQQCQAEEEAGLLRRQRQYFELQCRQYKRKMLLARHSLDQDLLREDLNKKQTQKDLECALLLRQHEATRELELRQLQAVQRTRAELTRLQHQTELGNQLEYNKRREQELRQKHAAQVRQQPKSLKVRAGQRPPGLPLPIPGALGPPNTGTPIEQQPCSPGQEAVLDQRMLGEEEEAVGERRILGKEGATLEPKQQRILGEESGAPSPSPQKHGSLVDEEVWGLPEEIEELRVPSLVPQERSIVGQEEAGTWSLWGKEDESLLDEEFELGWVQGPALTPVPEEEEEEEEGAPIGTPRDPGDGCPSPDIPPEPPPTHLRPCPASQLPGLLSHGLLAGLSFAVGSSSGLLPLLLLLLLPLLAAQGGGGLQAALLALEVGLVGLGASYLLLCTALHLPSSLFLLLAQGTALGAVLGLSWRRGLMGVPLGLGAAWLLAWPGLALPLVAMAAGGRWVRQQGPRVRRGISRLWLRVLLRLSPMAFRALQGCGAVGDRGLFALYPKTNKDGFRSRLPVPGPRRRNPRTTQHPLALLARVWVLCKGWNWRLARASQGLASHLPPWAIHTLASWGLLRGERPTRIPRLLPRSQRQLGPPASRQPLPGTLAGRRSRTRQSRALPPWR

[3] = target: Dual specificity mitogen-activated protein kinase kinase 2 (Homo sapiens) (UniProt P36507); test: Selectivity interaction (KinomeScan (DiscoverX)) EUB0000595a MAP2K2; details: at 10 µM
Sequence of Dual specificity mitogen-activated protein kinase kinase 2 (Homo sapiens) (P36507 whole entry): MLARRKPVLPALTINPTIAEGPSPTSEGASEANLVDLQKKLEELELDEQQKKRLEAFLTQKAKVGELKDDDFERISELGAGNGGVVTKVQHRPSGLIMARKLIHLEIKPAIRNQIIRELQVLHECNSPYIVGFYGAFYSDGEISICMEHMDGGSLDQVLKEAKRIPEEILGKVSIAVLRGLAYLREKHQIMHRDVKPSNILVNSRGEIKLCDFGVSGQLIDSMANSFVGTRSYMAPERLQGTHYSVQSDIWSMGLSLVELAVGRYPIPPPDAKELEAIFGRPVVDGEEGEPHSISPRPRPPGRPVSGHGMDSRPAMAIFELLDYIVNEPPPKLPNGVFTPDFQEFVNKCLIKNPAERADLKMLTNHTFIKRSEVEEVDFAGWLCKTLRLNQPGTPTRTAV

[4] = target: Cyclin-dependent kinase 5/CDK5 activator 1 (Homo sapiens) (UniProt Q00535+Q15078); test: Selectivity interaction (ProQinase) EUB0000171b CDK5; type: protein-complex assay; details: at 5 µM
Sequence of Cyclin-dependent kinase 5/CDK5 activator 1 (Homo sapiens) (Q00535 whole entry): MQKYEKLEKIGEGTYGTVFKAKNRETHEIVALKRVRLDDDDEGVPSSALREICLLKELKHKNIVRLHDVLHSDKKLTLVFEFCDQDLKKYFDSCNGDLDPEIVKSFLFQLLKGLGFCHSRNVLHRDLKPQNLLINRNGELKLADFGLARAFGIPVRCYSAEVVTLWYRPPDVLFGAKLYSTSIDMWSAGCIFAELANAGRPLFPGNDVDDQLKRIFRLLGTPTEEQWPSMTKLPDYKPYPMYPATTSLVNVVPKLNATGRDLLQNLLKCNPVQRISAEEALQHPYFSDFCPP
Sequence of Cyclin-dependent kinase 5/CDK5 activator 1 (Homo sapiens) (Q15078 99-307 partner limits assumed): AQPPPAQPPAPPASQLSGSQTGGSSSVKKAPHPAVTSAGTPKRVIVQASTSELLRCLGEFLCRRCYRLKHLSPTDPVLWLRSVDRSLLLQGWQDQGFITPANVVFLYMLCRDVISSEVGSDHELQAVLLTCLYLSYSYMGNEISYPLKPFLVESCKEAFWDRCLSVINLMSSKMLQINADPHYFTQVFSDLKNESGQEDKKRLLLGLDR

[5] = target: T3, Ephrin type-A receptor 1 (Homo sapiens) (UniProt P21709); test: Selectivity interaction (Kinase panel (Z-LYTE Assay)) EUB0001632a EPHA1; details: at 10 µM
T3 sequence (whole entry): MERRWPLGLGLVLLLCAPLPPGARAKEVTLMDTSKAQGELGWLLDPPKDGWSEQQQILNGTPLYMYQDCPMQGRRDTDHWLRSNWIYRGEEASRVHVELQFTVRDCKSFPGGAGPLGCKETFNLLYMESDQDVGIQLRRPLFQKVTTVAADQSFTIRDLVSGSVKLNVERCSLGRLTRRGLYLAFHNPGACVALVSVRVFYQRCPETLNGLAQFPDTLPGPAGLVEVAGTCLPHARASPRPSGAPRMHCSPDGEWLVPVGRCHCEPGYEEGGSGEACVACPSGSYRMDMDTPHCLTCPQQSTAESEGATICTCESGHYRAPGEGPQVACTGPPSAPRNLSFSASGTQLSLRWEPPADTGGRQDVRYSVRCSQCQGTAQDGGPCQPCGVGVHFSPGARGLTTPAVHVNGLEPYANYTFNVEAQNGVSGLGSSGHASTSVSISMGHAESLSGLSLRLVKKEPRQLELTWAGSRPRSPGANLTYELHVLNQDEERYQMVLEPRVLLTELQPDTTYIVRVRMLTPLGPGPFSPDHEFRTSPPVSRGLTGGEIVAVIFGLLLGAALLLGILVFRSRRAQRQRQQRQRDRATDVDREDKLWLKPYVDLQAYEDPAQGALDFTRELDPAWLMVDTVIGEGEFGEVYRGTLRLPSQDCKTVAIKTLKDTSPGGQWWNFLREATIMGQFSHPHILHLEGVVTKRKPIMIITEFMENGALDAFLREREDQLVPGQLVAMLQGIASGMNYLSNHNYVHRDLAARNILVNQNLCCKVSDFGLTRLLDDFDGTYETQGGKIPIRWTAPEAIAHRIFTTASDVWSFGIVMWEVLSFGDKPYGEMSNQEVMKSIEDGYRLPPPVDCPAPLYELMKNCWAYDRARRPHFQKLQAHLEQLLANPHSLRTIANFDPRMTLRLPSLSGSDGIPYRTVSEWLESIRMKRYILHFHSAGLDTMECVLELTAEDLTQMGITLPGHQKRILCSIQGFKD

Structure (SMILES): N#Cc1cccc(-c2c[nH]c3ncnc(N4CCOCC4)c23)c1
% of control [2]: 100%

Structure (SMILES): COCC(=O)NC/C=C/c1ccc2ncnc(Nc3ccc(Oc4ccc(C)nc4)c(C)c3)c2c1 [CP-724714]
% of control [3]: 11%

Structure (SMILES): C=CC(=O)Nc1cccc(C(=O)Nc2ccc(Nc3cc(-c4[nH]c(SC)nc4C)ccn3)cc2)c1
% of control [4]: 36%

Continued, values first:

% of control [1]: 100%
Structure (SMILES): CCN(CC)CCCCNc1ncc2cc(-c3cc(OC)cc(OC)c3)c(NC(=O)NC(C)(C)C)nc2n1

% of control [5]: 2.3%
Structure (SMILES): Cn1cc(-n2cnc3c(NCc4nc5cc(Cl)c(Cl)cc5[nH]4)nc(N4CCOCC4)nc32)cn1
